For 14 compounds, EC50 results are on record in patent publication US20250320205A1, “STAT6 DEGRADERS” (Gilead Sciences, Inc., priority 2024, published 2025).

In the assay the test system is Eotaxin-3 (CCL26) release. Nature of the assay: Human Whole Blood Eotaxin-3 Assay (IL-4 stimulated). The assay is classed as cell-based. As to conditions: Homo sapiens; geometric mean across assay runs and compound batches; EC50 provided for test compounds with >80% Emax. The method, then:
This was a human whole blood assay using recombinant human Interleukin 4 to stimulate the blood and measuring the ability of the test compounds to inhibit eotaxin-3 release. The biological activities of the test compounds have been tested in human whole blood stimulated with IL-4 measuring Eotaxin-3 release. The test compounds were added to 384 well clear flat-bottom plate in a 4-fold serial dilution in triplicates using a liquid handler. Human whole blood stabilized in lithium-heparin tubes was added in a volume of 65 μL per well, resulting in a final DMSO concentration of 0.5%. The plate is incubated for 2 h at 37° C. under 5% CO2/95% air. Subsequently, 5 μL of recombinant human IL-4 (R&D Systems, cat #204-ILB) was added to the wells to a final concentration of 400 pM. The plate was incubated for 48 h at 37° C. under 5% CO2/95% air. The plate was spun down for 10 minutes at 500×g and 20 μL supernatant was harvested and transferred to a 384 well v-bottom plate using a liquid handler and stored at −20° C. until further analysis. 10 μL supernatant was used to measure the level of Eotaxin-3 (CCL26) using Human Eotaxin-3 MSD kit from Mesocsale (Cat #K251UEK-4). The assay was performed according to the manufacture instructions.
Take `Cc1cc(C(=O)N2CCC(CN3CCN(c4ccc(NC5CCC(=O)NC5=O)cc4F)CC3)CC2)cc(F)c1C1=CCN([C@@H](C)c2cc3c(-n4cc(F)c5c(c4=O)CCN5)ccnc3n2C)CC1` (stereo partly drawn) [Example 2g31, 3-((3-fluoro-4-(4-((1-(3-fluoro-4-(1-((S)-1-(4-(7-fluoro-4-oxo-1,2,3,4-tetra-hydro-5H-pyrrolo[3,2-c]pyridin-5-yl)-1-methyl-1H-pyrrolo[2,3-b]pyridin-2-yl)-ethyl)-1,2,3,6-tetrahydro-pyridin-4-yl)-5-methylbenzo-yl)-piperidin-4-yl)methyl)-piperazin-1-yl)phenyl)-amino)piperidine-2,6-dione]: the EC50 is 0.268 µM. In turn, `CNc1nc(=O)n(-c2ccnc3c2cc([C@H](C)N2CC=C(c4c(C)cc(C(=O)N5CCn6nc(CN7CCC(c8ccc(NC9CCC(=O)NC9=O)c(OC)c8)CC7)cc6C5)cc4F)CC2)n3C)cc1F` (stereo partly drawn) [Example 2g8, 3-((4-(1-((5-(3-fluoro-4-(1-((S)-1-(4-(5-fluoro-4-(meth-ylamino)-2-oxopyrimidin-1(2H)-yl)-1-methyl-1H-pyrrolo[2,3-b]pyridin-2-yl)-ethyl)-1,2,3,6-tetrahydro-pyridin-4-yl)-5-methylbenzo-yl)-4,5,6,7-tetrahydropyrazolo [1,5-a]pyrazin-2-yl)methyl)-piperidin-4-yl)-2-methoxy-phenyl)amino)-piperidine-2,6-dione] came in with an EC50 of 0.0017 µM. For `CNc1ccn(-c2ccnc3c2cc([C@H](C)N2CC=C(c4c(C)cc(C(=O)N5CCC(CN6CCN(c7ccc(NC8CCC(=O)NC8=O)c(OC)c7)CC6)CC5)cc4F)CC2)n3C)c(=O)c1` (stereo partly drawn) [Example 2g125, 3-((4-(4-((1-(3-fluoro-5-meth-yl-4-(1-((S)-1-(1-methyl-4-(4-(methylamino)-2-oxopyridin-1(2H)-yl)-1H-pyrrolo[2,3-b]pyridin-2-yl)ethyl)-1,2,3,6-tetrahydropyridin-4-yl)benzo-yl)piperidin-4-yl)methyl)-piperazin-1-yl)-2-methoxy-phenyl)amino)piperidine-2,6-dione], the EC50 was determined as 0.0129 µM.

`CNc1cc(=O)n(-c2ccnc3c2cc([C@H](C)N2CC=C(c4c(C)cc(C(=O)N5CCn6nc(CN7CCC(c8cc(OC)c(NC9CCC(=O)NC9=O)cc8F)CC7)cc6C5)cc4F)CC2)n3C)cc1F` (stereo partly drawn) [Example 2g50, 3-((5-fluoro-4-(1-((5-(3-fluoro-4-(1-((S)-1-(4-(5-fluoro-4-(methylamino)-2-oxopyridin-1(2H)-yl)-1-meth-yl-1H-pyrrolo[2,3-b]pyridin-2-yl)ethyl)-1,2,3,6-tetrahydro-hydropyridin-4-yl)-5-methyl-benzoyl)-4,5,6,7-tetrahydro-pyrazolo[1,5-a]pyrazin-2-yl)-methyl)piperidin-4-yl)-2-methoxyphenyl)amino)piperi-dine-2,6-dione] yielded an EC50 of 0.121 µM. With `CNc1ccn(-c2ccnc3c2cc([C@H](C)N2CC=C(c4c(C)cc(C(=O)N5CCn6c(nnc6C6CCN(Cc7ccc(NC8CCC(=O)NC8=O)c(OC)c7)CC6)C5)cc4F)CC2)n3C)c(=O)c1` (stereo partly drawn) [Example 2g9, 3-((4-((4-(7-(3-fluoro-5-methyl-4-(1-((S)-1-(1-methyl-4-(4-(methylamino)-2-oxo-pyridin-1(2H)-yl)-1H-pyrrolo [2,3-b]pyridin-2-yl)ethyl)-1,2,3,6-tetrahydropyridin-4-yl)benzoyl)-5,6,7,8-tetra-hydro[1,2,4]triazolo[4,3-a]pyrazin-3-yl)piperidin-1-yl)-methyl)-2-methoxyphenyl)-amino)-piperidine-2,6-dione] the figure was 0.803 µM; with `CNc1ccn(-c2ccnc3c2cc([C@H](C)N2CC=C(c4c(C)cc(C(=O)N5CCC(CN6CCN(c7cccc(C(=O)NC8CCC(=O)NC8=O)c7)CC6)CC5)cc4F)CC2)n3C)c(=O)c1` (stereo partly drawn) [Example 2g21, N-(2,6-dioxopiperidin-3-yl)-3-(4-((1-(3-fluoro-5-methyl-4-(1-((S)-1-(1-methyl-4-(4-(methylamino)-2-oxopyridin-1(2H)-yl)-1H-pyrrolo[2,3-b]pyridin-2-yl)ethyl)-1,2,3,6-tetrahydropyridin-4-yl)benzo-yl)piperidin-4-yl)methyl)-piperazin-1-yl)benzamide], 0.0364 µM; with `C[C@@H](c1cc2c(-n3cc(F)c4c(c3=O)CCN4)ccnc2n1C)N1CC=C(c2c(F)cc(C(=O)N3CCn4nc(CN5CCC(c6ccc(NC7CCC(=O)NC7=O)cc6F)CC5)cc4C3)cc2F)CC1` (stereo partly drawn) [Example 2g3, 3-((4-(1-((5-(3,5-difluoro-4-(1-((S)-1-(4-(7-fluoro-4-oxo-1,2,3,4-tetrahydro-5H-pyrrolo [3,2-c]pyridin-5-yl)-1-methyl-1H-pyrrolo[2,3-b]pyridin-2-yl)ethyl)-1,2,3,6-tetrahydro-pyridin-4-yl)benzoyl)-4,5,6,7-tetrahydropyrazolo[1,5-a]pyrazin-2-yl)methyl)piperi-din-4-yl)-3-fluorophenyl)-amino)piperidine-2,6-dione], 0.0088 µM. `CNc1cc(=O)n(-c2ccnc3c2cc(CN2CC=C(c4c(F)cc(C(=O)N5CCC(CN6CCN(c7ccc(N[C@@H]8CCC(=O)NC8=O)cc7F)CC6)CC5)cc4F)CC2)n3C)cc1F` (single isomer, unassigned) [Example 2g67] returned an EC50 of 0.0994 µM.

In turn, `CNc1cc(=O)n(-c2ccnc3c2cc([C@H](C)N2CC=C(c4c(C)cc(C(=O)N5CCC(CN6CCN(c7ncc(NC8CCC(=O)NC8=O)cc7F)CC6)CC5)cc4F)CC2)n3C)cc1F` (stereo partly drawn) [Example 2g64, 3-((5-fluoro-6-(4-((1-(3-fluoro-4-(1-((S)-1-(4-(5-fluoro-4-(methylamino)-2-oxopyridin-1(2H)-yl)-1-meth-yl-1H-pyrrolo[2,3-b]pyridin-2-yl)ethyl)-1,2,3,6-tetrahydro-pyridin-4-yl)-5-methylbenzo-yl)piperidin-4-yl)methyl)-piperazin-1-yl)pyridin-3-yl)-amino)piperidine-2,6-dione] came in with an EC50 of 0.0257 µM. With `CNc1cc(=O)n(-c2ccnc3c2cc(CN2CC=C(c4c(F)cc(C(=O)N5CCC(CN6CCN(c7ccc(N[C@H]8CCC(=O)NC8=O)cc7F)CC6)CC5)cc4F)CC2)n3C)cc1F` (single isomer, unassigned) [Example 2g66], the EC50 came out at 0.173 µM. `CNc1ccn(-c2ccnc3c2cc([C@H](C)N2CC=C(c4c(C)cc(C(=O)N5CCC(CN6CCN(c7ncc(N[C@@H]8CCC(=O)NC8=O)cc7F)C[C@H]6C)CC5)cc4F)CC2)n3C)c(=O)c1` (single isomer, unassigned) [Example 2g115]: the EC50 is 0.0095 µM. In the case of `CNc1nc(=O)n(-c2ccnc3c2cc(CN2CCC(c4c(F)cc(C(=O)N5CCn6nc(CN7CCC(c8ccc(NC9CCC(=O)NC9=O)c(OC)c8)CC7)cc6C5)cc4F)CC2)n3C)cc1F` (centres unmarked) [Example 2c50, 3-((4-(1-((5-(3,5-difluoro-4-(1-((4-(5-fluoro-4-(methyl-amino)-2-oxopyrimidin-1(2H)-yl)-1-methyl-1H-pyr-rolo[2,3-b]pyridin-2-yl)meth-yl)piperidin-4-yl)benzoyl)-4,5,6,7-tetrahydropyrazolo-[1,5-a]pyrazin-2-yl)methyl)-piperidin-4-yl)-2-methoxy-phenyl)amino)piperidine-2,6-dione], the midpoint of the response, the EC50, lay at 0.0187 µM.

The compound `CNc1cc(=O)n(-c2ccnc3c2cc([C@@H](C)N2CCC(c4c(F)cc(C(=O)N5CCn6nc(CN7CCC(c8ccc(NC9CCC(=O)NC9=O)cc8F)CC7)cc6C5)cc4F)CC2)n3C)cc1F` (stereo partly drawn) [Example 2g51, 3-((4-(1-((5-(3,5-difluoro-4-(1-((R)-1-(4-(5-fluoro-4-(methylamino)-2-oxopyridin-1(2H)-yl)-1-methyl-1H-pyrrolo[2,3-b]pyridin-2-yl)-ethyl)piperidin-4-yl)benzoyl)-4,5,6,7-tetrahydropyrazolo [1,5-a]pyrazin-2-yl)methyl)-piperidin-4-yl)-3-fluorophen-yl)amino)piperidine-2,6-dione] yielded an EC50 of 0.0517 µM. For `CNc1ccn(-c2ccnc3c2cc([C@H](C)N2CC=C(c4c(F)cc(C(=O)N5CCC(CN6CCN(c7ccc(N[C@@H]8CCC(=O)NC8=O)cc7F)CC6)CC5)cc4F)CC2)n3C)c(=O)c1` (single isomer, unassigned) [Example 2g105], the half-maximal effective concentration (EC50) stood at 0.0087 µM.
